One test has as its system male Balb/c mice. The test is described as follows: Territorial Resident/Intruder aggression test. In kind it is in vivo. As for the experimental part: Data presented in this report indicate that long-term expression of Peptide YY3-36, an agonist of NPY Y receptors with higher affinity for the Y2 receptor, abolish aggressive behavior in mice. To test these observations, we used the territorial Resident/Intruder (R/I) aggressive paradigm (6), a standard test for evaluating rodent aggressive behavior. The test was applied on three different occasions using different intruders. Tests were recorded and analyzed in a blind manner using the Observer v5.0 software (Noldus Information Technology) (see videos, Supplementary data) (7).
Behavioral studies: Aggression territorial-Intruder test were performed on week 24 after the treatment (6). Briefly, PYY-, or GFP-treated resident mice were individually housed for at least two weeks prior to testing. Bedding from cages was not changed during the testing period to avoid unnecessary stress. On the day of the experiment, a smaller size intruder was placed into the resident cage for 10 minutes and the resident's behavior was recorded with a video camera. Each experiment was repeated 3 times on three different occasions and with different intruders. The videos from the experiments were analyzed for non-aggressive and aggressive behavior by an expert in a blind manner using The Observer v5.0 software (Noldus Information Technology) (7).
Data was reported in mean±SEM.

The subject of the next test is mice. The experiment in a line: PYY mouth spray, food intake after 24 hours fasting. Type of test: in vivo. As for the experimental part:
Synthetic PYY was purchased from Bachem, Inc USA (Cat #H-6042) and diluted in sterile H2O. Sterile un-used perfume sample vials (Saphora) were utilized to administer PYY in the form of a mouth spray. It was estimated that the volume of one spray approximates to about […].
Mice were conditioned three times to 24 hours fasting starting at the beginning of the dark cycle and ending at the end of the light cycle. At the end of the fasting cycle and as a part of conditioned routine, a sterile water spray had been administered into the mouth. All the experiments were done during the first hour of the dark cycle after fasting. Once the dark cycle started, mice were sprayed once with either PYY or sterile H2O in a total volume of […] per spray. After the treatment, mice were returned to their cages and ten minutes later pre-weighted chow was provided. One hour later, the amount of consumed chow had been recorded by measuring the leftover amount. When the experiments were repeated, mice were fasted only once a week with the control and experimental groups rotated.

In the case of “PYY3-36: endogenous NPY Y2 receptor agonist; salivary level raised long-term by rAAV-PYY in the treated mice”, in the test with male Balb/c mice (vs control mice), the chase duration entry is “decrease” and the chase events entry was “decrease”. For the same substance, in the test with male Balb/c mice (vs controls), the attack duration entry is “significant decrease”, the attack latency entry is given as “significant increase”, the “normal social interactions manifested by sniffing” value is “did not change” and the threat duration result was “significant decrease”. In addition, the threat events result in the test on male Balb/c mice (vs controls) is on record as “significant decrease”. In the test on male Balb/c mice (week 24 after treatment, n=5, mean±SEM), the attack events is 0.07±0.067 events per 10 min. Also, in the test on male Balb/c mice (week 24 after treatment, n=5, p<0.05), the “decrease in the number of attack events compared to controls” value came out at 44 fold.

Take “PYY: Synthetic PYY purchased from Bachem (Cat #H-6042), diluted in sterile H2O, given as a mouth spray [Peptide YY]”: the “dose response of PYY mouth spray on FI after one hour” value in the test with mice (mouth spray) was “significant PYY dose response effect”. The “less food consumed in one hour compared to H2O spray control” value with mice (one mouth spray, 5 ug per 100 g of body weight, after 24 h fasting, average, P=0.03) is reported as 15%.

For the origin of these results see patent publication US12109251B2, “Satiation peptide administration” (University of Florida Research Foundation, Incorporated, priority 2009, dated 2024).
